Reference: PMC9861162 (Pharmaceuticals, 2022)

Key:
CYP2B6 = test system: CYP2B6; parameters: method as in PMID 25429674; details: ref [9]; cited from earlier work
CYP3A [1] = details: clinical DDI studies; ref [9]; cited from earlier work
CYP3A [2] = details: ref [9]; cited from earlier work
CYP1A2 [3] = molecular target: T1, CYP1A2 (Homo sapiens, UniProt P05177); parameters: method as in PMID 25429674; details: ref [9]; cited from earlier work
T1 sequence (P05177 1-516): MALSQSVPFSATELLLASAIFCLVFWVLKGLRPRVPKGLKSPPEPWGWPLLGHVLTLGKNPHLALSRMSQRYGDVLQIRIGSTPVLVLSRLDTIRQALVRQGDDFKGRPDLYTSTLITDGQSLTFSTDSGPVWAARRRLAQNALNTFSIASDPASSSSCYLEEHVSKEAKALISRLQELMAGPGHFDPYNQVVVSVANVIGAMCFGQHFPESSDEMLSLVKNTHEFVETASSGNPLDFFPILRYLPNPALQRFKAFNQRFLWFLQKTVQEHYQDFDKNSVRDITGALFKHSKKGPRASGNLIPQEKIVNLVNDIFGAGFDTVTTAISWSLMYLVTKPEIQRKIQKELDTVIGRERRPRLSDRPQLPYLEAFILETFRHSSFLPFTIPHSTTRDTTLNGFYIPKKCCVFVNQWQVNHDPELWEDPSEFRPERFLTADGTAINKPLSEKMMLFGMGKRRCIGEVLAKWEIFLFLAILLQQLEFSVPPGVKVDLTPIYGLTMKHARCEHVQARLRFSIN

CYP2A6 [4] = molecular target: T2, CYP2A6 (Homo sapiens, UniProt P11509); parameters: method as in PMID 25429674; details: ref [9]; cited from earlier work
T2 sequence (P11509 1-494): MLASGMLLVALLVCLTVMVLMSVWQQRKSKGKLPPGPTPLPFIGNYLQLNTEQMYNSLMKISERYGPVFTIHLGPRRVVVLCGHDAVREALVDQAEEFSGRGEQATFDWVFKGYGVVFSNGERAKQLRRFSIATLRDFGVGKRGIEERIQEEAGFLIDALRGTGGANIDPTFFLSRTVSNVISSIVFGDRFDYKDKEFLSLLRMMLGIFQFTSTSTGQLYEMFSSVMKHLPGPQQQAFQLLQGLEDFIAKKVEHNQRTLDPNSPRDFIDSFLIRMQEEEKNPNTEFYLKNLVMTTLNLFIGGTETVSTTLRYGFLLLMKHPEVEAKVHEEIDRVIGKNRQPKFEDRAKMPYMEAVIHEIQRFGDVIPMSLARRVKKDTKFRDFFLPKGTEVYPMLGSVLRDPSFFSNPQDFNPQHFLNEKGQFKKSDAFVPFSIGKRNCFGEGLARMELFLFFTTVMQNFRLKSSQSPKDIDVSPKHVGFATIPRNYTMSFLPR

CYP3A4/5 = assay: in vitro CYP450 metabolism inhibition assay in human liver microsomes, CYP3A (midazolam or nifedipine); details: human, microsomes, pH 7.4
Method: (§1) The incubation conditions employed for each CYP450 isoform were performed, as previously described.
(§2) Buffer solution (0.1 mol/L aqueous phosphate buffer, pH 7.4, 69 µL), NADPH-regenerating solutions (10 µL solution A: 26 mmol/L NADP+, 66 mmol/L glucose-6-phosphate, and 66 mmol/L MgCl2; 2 µL solution B: 40 U/mL glucose-6-phosphate dehydrogenase in 5 mmol/L sodium citrate), and deionized water (69 µL) were added, in a total volume of 150 μL. The tubes were vortex-mixed and preincubated with continuous gentle shaking for 5 min at 37 °C in a shaking water bath. Reactions were initiated by the addition of 50 µL of HLM solution in the tubes which were gently mixed by hand and incubated with continuous gentle shaking at 37 °C. Aliquots of 200 µL ice-cold solvent (Table 1) containing IS (1 µg/mL) were added. […] The supernatants were transferred to glass autosampler vials and submitted to LC-MS/MS analysis (5 µL injection volume) to monitor the substrate metabolite formation.

CYP1A1 = test system: CYP1A1; parameters: method as in PMID 25429674; details: ref [9]; cited from earlier work
CYP2C19 = CYP2C19 (Homo sapiens, UniProt P33261); parameters: method as in PMID 25429674; details: ref [9]; cited from earlier work
CYP2D6 = CYP2D6 (Homo sapiens, UniProt P10635); parameters: method as in PMID 25429674; details: ref [9]; cited from earlier work
CYP3A4 = details: cited from earlier work
CYP1A2 [5] = molecular target: T1, CYP1A2; details: cited from earlier work
CYP2A6 [6] = molecular target: T2, CYP2A6; assay: in vitro CYP450 metabolism inhibition assay in human liver microsomes, CYP2A6 (coumarin); details: HLM, substrate coumarin; figure in parentheses not defined
Method: as §1, §2

CYP2C8 = molecular target: T3, CYP2C8 (Homo sapiens, UniProt P10632); parameters: method as in Hua et al. [19]; details: by CYP2C8; ref Hua et al. [19]; cited from earlier work
T3 sequence (P10632 1-490): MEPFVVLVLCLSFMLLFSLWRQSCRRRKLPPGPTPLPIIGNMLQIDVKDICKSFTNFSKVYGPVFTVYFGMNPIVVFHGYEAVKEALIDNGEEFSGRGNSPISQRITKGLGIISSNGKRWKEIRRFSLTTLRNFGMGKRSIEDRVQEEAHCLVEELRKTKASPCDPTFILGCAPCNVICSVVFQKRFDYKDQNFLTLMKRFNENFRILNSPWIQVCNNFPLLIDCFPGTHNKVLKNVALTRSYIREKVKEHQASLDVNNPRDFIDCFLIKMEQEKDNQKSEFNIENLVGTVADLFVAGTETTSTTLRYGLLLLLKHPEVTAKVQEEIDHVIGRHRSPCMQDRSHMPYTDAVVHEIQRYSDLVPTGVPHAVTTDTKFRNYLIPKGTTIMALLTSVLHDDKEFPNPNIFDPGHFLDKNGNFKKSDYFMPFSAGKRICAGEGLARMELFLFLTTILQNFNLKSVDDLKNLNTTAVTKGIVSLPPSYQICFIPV

CYP2C19, sequence (P33261 whole entry): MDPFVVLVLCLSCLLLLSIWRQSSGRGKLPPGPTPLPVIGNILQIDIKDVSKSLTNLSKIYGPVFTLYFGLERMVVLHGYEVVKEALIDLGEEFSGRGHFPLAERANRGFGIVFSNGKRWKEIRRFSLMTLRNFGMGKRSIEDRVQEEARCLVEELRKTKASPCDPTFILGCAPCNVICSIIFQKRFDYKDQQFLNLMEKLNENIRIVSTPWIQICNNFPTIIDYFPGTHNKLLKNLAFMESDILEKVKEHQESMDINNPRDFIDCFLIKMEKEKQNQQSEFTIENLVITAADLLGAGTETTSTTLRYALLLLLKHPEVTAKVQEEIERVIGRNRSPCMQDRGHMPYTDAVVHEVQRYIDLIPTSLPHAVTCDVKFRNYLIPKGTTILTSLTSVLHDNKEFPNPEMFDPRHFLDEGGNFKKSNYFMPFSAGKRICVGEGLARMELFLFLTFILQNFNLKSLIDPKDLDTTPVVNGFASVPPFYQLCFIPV
CYP2D6, sequence (P10635 whole entry): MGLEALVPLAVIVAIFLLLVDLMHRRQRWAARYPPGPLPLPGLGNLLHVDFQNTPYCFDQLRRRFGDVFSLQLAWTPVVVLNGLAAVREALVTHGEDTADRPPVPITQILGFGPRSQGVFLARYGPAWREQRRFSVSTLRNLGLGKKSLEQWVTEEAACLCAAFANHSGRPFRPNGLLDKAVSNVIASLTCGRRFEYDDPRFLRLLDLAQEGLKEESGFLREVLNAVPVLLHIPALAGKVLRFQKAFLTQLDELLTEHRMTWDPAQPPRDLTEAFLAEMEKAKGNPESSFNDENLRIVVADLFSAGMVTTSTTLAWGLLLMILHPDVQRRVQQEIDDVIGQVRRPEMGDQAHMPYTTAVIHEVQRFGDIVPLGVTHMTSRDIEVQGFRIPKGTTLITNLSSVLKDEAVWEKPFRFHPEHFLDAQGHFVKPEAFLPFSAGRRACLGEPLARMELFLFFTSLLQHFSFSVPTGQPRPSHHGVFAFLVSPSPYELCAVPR

## CCC(C)n1ncn(-c2ccc(N3CCN(c4ccc(OCC5COC(Cn6cncn6)(c6ccc(Cl)cc6Cl)O5)cc4)CC3)cc2)c1=O (stereo not shown) [itraconazole]
CYP2B6
  in vitro inhibition of CYP2B6: strongly inhibits
CYP3A [1]
  clinical CYP3A inhibitor strength: moderate to strong CYP3A inhibitors
CYP3A [2]
  in vitro inhibition of CYP3A: strongly inhibits

## CC(=O)N1CCN(c2ccc(OCC3COC(Cn4ccnc4)(c4ccc(Cl)cc4Cl)O3)cc2)CC1 (stereo not shown) [Ketoconazole]
CYP1A2 [3]
  in vitro inhibition of CYP1A2: moderately inhibits
CYP2A6 [4]
  in vitro inhibition of CYP2A6: moderately inhibits
CYP3A4/5
  IC50: < 10 nM
CYP1A1
  in vitro inhibition of CYP1A1: strongly inhibits
CYP3A [1]
  clinical CYP3A inhibitor strength: moderate to strong CYP3A inhibitors
CYP3A [2]
  in vitro inhibition of CYP3A: strongly inhibits

## Clc1ccc(COC(Cn2ccnc2)c2ccc(Cl)cc2Cl)c(Cl)c1 (stereo not shown) [miconazole]
CYP2B6
  in vitro inhibition of CYP2B6: strongly inhibits
CYP2A6 [4]
  in vitro inhibition of CYP2A6: strongly inhibits
CYP2C19
  in vitro inhibition of CYP2C19: strongly inhibits
CYP2D6
  in vitro inhibition of CYP2D6: strongly inhibits
CYP3A [2]
  in vitro inhibition of CYP3A: strongly inhibits

## CC[C@@H]([C@H](C)O)n1ncn(-c2ccc(N3CCN(c4ccc(OC[C@@H]5CO[C@@](Cn6cncn6)(c6ccc(F)cc6F)C5)cc4)CC3)cc2)c1=O [posaconazole]
CYP3A [1]
  clinical CYP3A inhibitor strength: moderate to strong CYP3A inhibitors
CYP3A [2]
  in vitro inhibition of CYP3A: strongly inhibits

## Cc1ncc2n1-c1ccc(Cl)cc1C(c1ccccc1F)=NC2 [Midazolam]
CYP3A4
  fm (fraction metabolized): 0.88

## CCOc1ccc(NC(C)=O)cc1 [Phenacetin]
CYP1A2 [5]
  fm (fraction metabolized): 0.71

## N[C@@H]1C[C@H]1c1ccccc1 (racemic) [Tranylcypromine, reference compound]
CYP2A6 [6]
  IC50: 799 nM

## CC(=O)O[C@H]1C(=O)[C@@]2(C)[C@H]([C@H](OC(=O)c3ccccc3)[C@]3(O)C[C@H](OC(=O)[C@H](O)[C@@H](NC(=O)c4ccccc4)c4ccccc4)C(C)=C1C3(C)C)[C@]1(OC(C)=O)CO[C@@H]1C[C@@H]2O [Paclitaxel]
CYP2C8
  fm (fraction metabolized): 0.5

## OC(Cn1cncn1)(Cn1cncn1)c1ccc(F)cc1F [fluconazole]
CYP3A [1]
  clinical CYP3A inhibitor strength: moderate to strong CYP3A inhibitors
CYP3A [2]
  in vitro inhibition of CYP3A: moderately inhibits
